In publication PMC11595424, “Heterocycles and a Sorbicillinoid from the Coral-Derived Fungus Penicillium chrysogenum” (Marine Drugs, 2024):

Experiments:
Assay type in all cases: cell-based
[1] = test system: K562 (human leukemia) cell line; experiment: Cytotoxicity assay, MTT method, K562; conditions: for IC50: Homo sapiens, K562 cell line, MTT method; for Inhibition rate (%): Table S12, K562, IC50 rescreen
Description: (§1) The cytotoxic activity against the K562 (human leukemia) cell line was evaluated by MTT method, and the cytotoxic activities against L-02 (normal human hepatocytes), ASPC-1 (human pancreatic cancer), MDA-MB-231 (human breast cancer), NCI-H446, and NCI-H446/EP (human small cell lung cancer) cell lines were determined by SRB method. The difference between the two human small-cell lung cancer cell lines is that NCI-H446 is a sensitive cell line while the NCI-H446/EP cell line is resistant to cisplatin, etoposide, SN38, and doxorubicin. As a positive control, doxorubicin was used. […]
(§2) The cytotoxic activity against the K562 (human leukemia) cell line was evaluated by MTT method, and the cytotoxic activities against L-02 (normal human hepato-cytes), ASPC-1 (human pancreatic cancer), MDA-MB-231 (human breast cancer), NCI-H446 and NCI-H446/EP (human small cell lung cancer) cell lines were determined by SRB method.
(§3) Doxorubicin was used as a positive control.
(§4) In the cytotoxic assay, preliminary screening for cytotoxicity of compounds was performed at the concentration of 30 μM, then the compounds with inhibition rate greater than 60 % were rescreened for the IC 50 values. The blank control, vehicle control, positive control (doxorubicin) and compounds at five different concentrations (30, 15, 3.75, 1.875 and 0.9375 μM) were tested three times and the average OD values were taken to calculated IC50 values.
(§5) Table S11. Cytotoxic activities of 1−5
(§6) Compound c Inhibition rate (%) […]
a Doxorubicin was used as positive control.
Table S12. Cytotoxicity against K562 cell line of 5

[2] = test system: MDA-MB-231 (human breast cancer); experiment: Cytotoxicity assay, SRB method, MDA-MB-231; conditions: for IC50: Homo sapiens, MDA-MB-231 cells, SRB method
Description: as §1, §2, §3, §4, §5, §6
(§7) a Doxorubicin was used as positive control. […]

[3] = test system: ASPC-1 (human pancreatic cancer); experiment: Cytotoxicity assay, SRB method, ASPC-1; conditions: for IC50: Homo sapiens, ASPC1, ASPC-1 cells, SRB method
Description: as §1, §2, §3, §4, §5, §6, §7

[4] = test system: NCI-H446 (human small cell lung cancer) cell line; experiment: Cytotoxicity assay, SRB method, NCI-H446; conditions: for IC50: Homo sapiens, NCI-H446 (sensitive) cells, SRB method; for Inhibition rate (%): Table S13, NCI-H446, IC50 rescreen
Description: as §1, §2, §3, §4, §5, §6, §7
Table S13. Cytotoxicity against NCI-H446 cell line of 5 c (μM) OD value Inhibition rate (%) IC 50 ( μM)

[5] = test system: L-02 (normal human hepatocytes); experiment: Cytotoxicity assay, SRB method, L-02; conditions: for IC50: Homo sapiens, L02, L-02 cells, SRB method
Description: as §1, §2, §3, §4, §5, §6, §7

[6] = test system: NCI-H446/EP (human small cell lung cancer) cell line; experiment: Cytotoxicity assay, SRB method, NCI-H446/EP; conditions: for IC50: Homo sapiens, NCI-H446/EP cells (resistant to cisplatin, etoposide, SN38, doxorubicin), SRB method
Description: as §1, §2, §3, §4, §5, §6, §7

[7] = test system: NCI-H446 (human small cell lung cancer) cell line; experiment: Cytotoxicity assay, SRB method, NCI-H446; conditions: Table S13, NCI-H446, IC50 rescreen, c 7.5 μM
[8] = test system: K562 (human leukemia) cell line; experiment: Cytotoxicity assay, MTT method, K562; conditions: Table S12, K562, IC50 rescreen, c 7.5 μM
[9] = Table S11, positive control, c 1 μM
[10] = Table S11, preliminary screening, c 30 μM

| SMILES | IC50 [1] [µM] | IC50 [2] [µM] | IC50 [3] [µM] | IC50 [4] [µM] | IC50 [5] [µM] | IC50 [6] [µM] | Inhibition rate (%) K562 [1, 10] [%] | Inhibition rate (%) MDA-MB-231 [2, 10] [%] | Inhibition rate (%) ASPC-1 [3, 10] [%] | Inhibition rate (%) NCI-H446 [4, 10] [%] | Inhibition rate (%) L-02 [5, 10] [%] | Inhibition rate (%) NCI-H446/EP [6, 10] [%] | further results |
| --- | --- | --- | --- | --- | --- | --- | --- | --- | --- | --- | --- | --- | --- |
| COc1cccc2c1C(=O)c1c(O)c3c(c(O)c1C2=O)C[C@@](O)(C(=O)CO)C[C@@H]3O[C@H]1C[C@H](N)[C@H](O)[C@H](C)O1 [Doxorubicin, reference compound] | < 1 | < 1 | > 1 | < 1 | < 1 | > 1 | – | – | – | – | – | – | Inhibition rate (%) K562 [1, 9]: 100.00%; Inhibition rate (%) ([1]; c 1 μM): 100.00%; Inhibition rate (%) MDA-MB-231 [2, 9]: 65.37%; Inhibition rate (%) ASPC-1 [3, 9]: 29.65%; Inhibition rate (%) NCI-H446 [4, 9]: 52.20%; Inhibition rate (%) L-02 [5, 9]: 87.67%; Inhibition rate (%) NCI-H446/EP [6, 9]: 27.60% |
| CC(c1nc2ccccc2c(=O)[nH]1)N1CCCC1=O (stereo not shown) [Compound 2, Chrysoquinazolinone B] | > 30 | > 30 | > 30 | > 30 | > 30 | > 30 | 33.57 | 5.80 | 7.93 | 4.70 | 0.28 | 12.47 | – |
| CC1C(CCc2nc3ccccc3c(=O)[nH]2)C2CC(=O)C1(C)C(=O)C2(C)O (stereo not shown) [Compound 1, Chrysoquinazolinone A] | > 30 | > 30 | > 30 | > 30 | > 30 | > 30 | 35.08 | -4.59 | 0.00 | 2.22 | -0.42 | 9.68 | – |
| Cc1cc(O)c(CC[C@@H](C)C(=O)O)c2scnc12 [Compound 3a, Chrysobenzothiazole A] | > 30 | > 30 | > 30 | > 30 | > 30 | > 30 | 20.39 | 0.40 | 18.16 | 1.04 | 10.94 | 11.04 | – |
| C/C=C/C=C/C(=O)c1cc(C)c(C(=O)O)c(C)c1O [Compound 5, 4-Carboxylsorbicillin] | 15 | > 30 | > 30 | 16.9 | > 30 | > 30 | 97.15 | -14.63 | 25.47 | 86.08 | 13.89 | 54.99 | Inhibition rate (%) ([1]; c 0.9375 μM): 8.60%; Inhibition rate (%) ([1]; c 1.875 μM): 7.71%; Inhibition rate (%) ([1]; c 3.75 μM): 13.35%; Inhibition rate (%) ([1]; c 15 μM): 47.36%; Inhibition rate (%) ([1]; c 30 μM): 77.22%; Inhibition rate (%) [7]: 14.10%; Inhibition rate (%) ([4]; c 0.9375 μM): -8.00%; Inhibition rate (%) ([4]; c 1.875 μM): 0.43%; Inhibition rate (%) ([4]; c 3.75 μM): 2.66%; Inhibition rate (%) ([4]; c 15 μM): 51.20%; Inhibition rate (%) ([4]; c 30 μM): 74.28%; Inhibition rate (%) [8]: 20.85% |
| Cc1c(O)cc(CCC(C)C(=O)O)c2ncsc12 (stereo not shown) [Compound 4, chrysobenzothiazole B] | > 30 | > 30 | > 30 | > 30 | > 30 | > 30 | 37.63 | 6.32 | 8.56 | 6.55 | -1.81 | 7.13 | – |
| Cc1cc(O)c(CC[C@H](C)C(=O)O)c2scnc12 [Compound 3b, Chrysobenzothiazole A] | > 30 | > 30 | > 30 | > 30 | > 30 | > 30 | 34.54 | -4.16 | 2.09 | 9.14 | -5.91 | 14.64 | – |
